Assay: xn = mol fraction of the nth substance listed
Conditions: 102.2 kPa, Liquid, Vibrating tube method

C[Si](C)(O[Si](C)(C)c1ccccc1)c1ccccc1 [1,3-diphenyltetramethyldisiloxane] + C=C[Si](C)(C)O[Si](C)(C)C=C
mass density [kg/m3]
Conditions | 308.15 K | 313.15 K | 318.15 K | 323.15 K | 328.15 K
x1 = 0.0502 | 809.57 | 804.7 | 799.79 | 794.89 | 789.94
x1 = 0.1 | 820.63 | 815.84 | 811.01 | 806.21 | 801.35
x1 = 0.1487 | 831.07 | 826.38 | 821.62 | 816.9 | 812.12
x1 = 0.2002 | 841.7 | 837.11 | 832.41 | 827.77 | 823.05
x1 = 0.2498 | 851.61 | 847.08 | 842.45 | 837.87 | 833.22
x1 = 0.3 | 861.28 | 856.78 | 852.19 | 847.66 | 843.06
x1 = 0.3503 | 870.64 | 866.2 | 861.68 | 857.2 | 852.68
x1 = 0.3994 | 879.46 | 875.05 | 870.55 | 866.12 | 861.63
x1 = 0.4502 | 888.32 | 883.96 | 879.52 | 875.17 | 870.72
x1 = 0.5001 | 896.73 | 892.42 | 888.02 | 883.7 | 879.29
x1 = 0.5498 | 904.84 | 900.61 | 896.23 | 891.95 | 887.57
x1 = 0.6002 | 912.8 | 908.56 | 904.21 | 899.93 | 895.59
x1 = 0.6502 | 920.47 | 916.26 | 911.95 | 907.71 | 903.38
x1 = 0.7004 | 927.9 | 923.73 | 919.47 | 915.27 | 911
x1 = 0.7504 | 935.1 | 930.94 | 926.72 | 922.51 | 918.26
x1 = 0.8003 | 942.07 | 937.9 | 933.7 | 929.52 | 925.3
x1 = 0.8498 | 948.8 | 944.66 | 940.48 | 936.33 | 932.14
x1 = 0.8986 | 955.23 | 951.09 | 946.94 | 942.83 | 938.64
x1 = 0.9502 | 961.82 | 957.69 | 953.57 | 949.47 | 945.33
x1 = 1 | 967.99 | 963.87 | 959.76 | 955.68 | 951.57

C[Si](C)(O[Si](C)(C)c1ccccc1)c1ccccc1 [1,3-diphenyltetramethyldisiloxane] + C[Si]1(C)O[Si](C)(C)O[Si](C)(C)O[Si](C)(C)O1
mass density [kg/m3]
Conditions | 308.15 K | 313.15 K | 318.15 K | 323.15 K | 328.15 K
x1 = 0.05 | 940.79 | 935.08 | 929.44 | 923.79 | 918.1
x1 = 0.0999 | 942.6 | 937.01 | 931.46 | 925.91 | 920.32
x1 = 0.1503 | 944.43 | 938.95 | 933.49 | 928.04 | 922.57
x1 = 0.2005 | 946.19 | 940.8 | 935.45 | 930.1 | 924.72
x1 = 0.2507 | 947.88 | 942.59 | 937.33 | 932.06 | 926.77
x1 = 0.2963 | 949.39 | 944.19 | 939.02 | 933.84 | 928.63
x1 = 0.3509 | 951.16 | 946.05 | 940.97 | 935.88 | 930.78
x1 = 0.4001 | 952.67 | 947.66 | 942.65 | 937.65 | 932.62
x1 = 0.4471 | 954.04 | 949.1 | 944.16 | 939.26 | 934.29
x1 = 0.4968 | 955.6 | 950.74 | 945.91 | 941.08 | 936.23
x1 = 0.5512 | 957.17 | 952.39 | 947.64 | 942.9 | 938.15
x1 = 0.6003 | 958.51 | 953.82 | 949.15 | 944.46 | 939.79
x1 = 0.6502 | 959.83 | 955.22 | 950.62 | 946.01 | 941.41
x1 = 0.7001 | 961.15 | 956.6 | 952.09 | 947.56 | 943.03
x1 = 0.7497 | 962.4 | 957.92 | 953.48 | 949.04 | 944.59
x1 = 0.8 | 963.64 | 959.25 | 954.87 | 950.49 | 946.11
x1 = 0.85 | 964.8 | 960.48 | 956.18 | 951.88 | 947.58
x1 = 0.896 | 965.82 | 961.53 | 957.3 | 953.03 | 948.8
x1 = 0.9497 | 967 | 962.79 | 958.63 | 954.45 | 950.29
x1 = 1 | 968.05 | 963.92 | 959.8 | 955.69 | 951.58
